Experiments:
Type in all cases: biochemical, A. thaliana
[1] = target: T1, PRORP1 C353A/C373A (Arabidopsis thaliana, UniProt Q66GI4, C353A/C373A); experiment: Time-dependent inactivation by juglone, PRORP1 C353A/C373A
T1 construct: made in house
Procedure: (§1) Given the multiple sites of cysteine modification, we wanted to identify the one(s) that potentially play a significant role in PRORP1 inactivation. Therefore, several cysteine-to-alanine point mutants were expressed, purified, and subjected to inhibition studies. We tested both single-site (C353A and C373A) and double-site (C353A/C373A and C222A/C353A) mutations. […] The value of kinact,app for each PRORP1 at varied concentrations of juglone was determined by fitting a single exponential equation (Equation 5) to the data (Fig. 10A). Unexpectedly, the values of kinact/KI (reflecting the inhibition of E + I to form EI∗) increased for a number of the PRORP1 variants: wildtype (0.001 ± 0.00004 μM^-1 min^-1), C353A (0.005 ± 0.002 μM^−1 min^−1), C373A (0.002 ± 0.0004 μM^-1 min^−1), C222A/C353A (0.003 ± 0.0001 μM^−1 min^−1), and C353A/C373A (0.0008 ± 0.0002 μM^-1 min^−1). These modest increases could be due to a decrease in the KI value or an increase in the value of kinact. […] Although, we cannot discount the possibility, however unlikely, that juglone may employ a mode of inhibition beyond cysteine residue modification that our crystal structures fail to capture.
(§2) Figure 10 Effects of PRORP1 cysteine mutations on juglone inactivation. […]
(§3) For the analysis of juglone, PRORP1 activity was measured with varying preincubation time and juglone concentration. […]

[2] = target: T2, PRORP1 C222A/C353A (Arabidopsis thaliana, UniProt Q66GI4, C222A/C353A); experiment: Time-dependent inactivation by juglone, PRORP1 C222A/C353A
T2 construct: made in house
T2 sequence (Q66GI4 77-572 C222A/C353A): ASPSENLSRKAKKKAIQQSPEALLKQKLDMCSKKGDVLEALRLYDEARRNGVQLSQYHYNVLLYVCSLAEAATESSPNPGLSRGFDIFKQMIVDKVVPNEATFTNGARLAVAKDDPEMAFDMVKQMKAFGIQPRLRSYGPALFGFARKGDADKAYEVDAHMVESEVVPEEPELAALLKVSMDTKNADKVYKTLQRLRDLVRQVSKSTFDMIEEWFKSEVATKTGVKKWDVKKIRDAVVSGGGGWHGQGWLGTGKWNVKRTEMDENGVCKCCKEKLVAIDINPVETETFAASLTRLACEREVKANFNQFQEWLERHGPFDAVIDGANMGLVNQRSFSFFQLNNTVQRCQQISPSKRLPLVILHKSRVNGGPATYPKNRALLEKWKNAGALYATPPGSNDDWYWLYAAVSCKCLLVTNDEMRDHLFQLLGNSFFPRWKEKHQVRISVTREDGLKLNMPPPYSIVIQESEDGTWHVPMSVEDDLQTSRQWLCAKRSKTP
Procedure: as §1, §2, §3

[3] = target: T3, PRORP1 C353A (Arabidopsis thaliana, UniProt Q66GI4, C353A); experiment: Time-dependent inactivation by juglone, PRORP1 C353A
T3 construct: made in house
T3 sequence (Q66GI4 77-572 C353A): as the sequence (Q66GI4 77-572 C222A/C353A) above, with A146C counted along it
Procedure: as §1, §2, §3

[4] = target: T4, PRORP1 C373A (Arabidopsis thaliana, UniProt Q66GI4, C373A); experiment: Time-dependent inactivation by juglone, PRORP1 C373A
T4 construct: made in house
T4 sequence (Q66GI4 77-572 C373A): as the sequence (Q66GI4 77-572 C222A/C353A) above, with A146C, A277C, C297A counted along it
Procedure: as §1, §2, §3

T1 sequence (Q66GI4 77-572 C353A/C373A): as the sequence (Q66GI4 77-572 C222A/C353A) above, with A146C, C297A counted along it

In the case of O=C1C=CC(=O)c2c(O)cccc21 [juglone, 5-hydroxy-1,4-naphthalenedione], the kinact/KI [1] is reported as 13.3 M⁻¹ s⁻¹, the “inhibition at time 0” value ([1]; double-cysteine mutation (C353A/C373A)) is reported as “not observed” and the kinact/KI [2] is reported as 50 M⁻¹ s⁻¹. For the same compound, the “inhibition at time 0” value ([2]; double-cysteine mutation (C222A/C353A)) was “not observed”, the Ki [3] was greater than 10 µM and the kinact/KI [3] was 83.3 M⁻¹ s⁻¹. For the same compound, the Ki [4] was greater than 10 µM and the kinact/KI [4] was 33.3 M⁻¹ s⁻¹.

Reference: paper PMC9731865, “Gambogic acid and juglone inhibit RNase P through distinct mechanisms” (The Journal of Biological Chemistry, 2022)
